Results on one compound are retold here after patent publication US20060223889A1 (priority 2003, published 2006).

A short description of data set [1]: physchem. Conditions: pH 7, water.
The nature of data set [2]: Stability in aqueous solution. In kind it is physicochemical.

The structures appear in SMILES notation.

The term solubility denotes the concentration that dissolves in the medium under given conditions. Higher therefore signals a readily soluble substance. `CS(=O)(=O)c1ccc([C@@H](O)[C@@H](CF)NC(=O)C(Cl)Cl)cc1` [Florfenicol, D-(threo)-1-p-methylsulfonyl phenyl-2-dichloroacetamido-3-fluoro-1-propanol] gave a solubility in data set [1] not above 1300 µg/mL. In addition, in data set [2], the “hydrolysis when dissolved in water” value is reported as “readily hydrolyses”.
